{
  "source": "paper PMC11198769",
  "about": "“Enhancement of transcription efficiency by TAR-Tat system increases the functional expression of human olfactory receptors” (PLOS ONE, 2024)",
  "test_in_all_cases": "hOR assay (GloSensor cAMP luciferase), dose-response",
  "assay_type_in_all_cases": "cell-based",
  "key": {"OR2J3": {"target": "T1, OR2J3 (Homo sapiens, UniProt O76001)", "T1 construct": "Lucy tag (N); FLAG (N); Rho tag (N); expressed in transfected cells; host or cells: Flp-In T-REx-293 cells stably expressing RTP1S, Gαolf and Ric8-b", "T1 sequence (O76001 1-311)": "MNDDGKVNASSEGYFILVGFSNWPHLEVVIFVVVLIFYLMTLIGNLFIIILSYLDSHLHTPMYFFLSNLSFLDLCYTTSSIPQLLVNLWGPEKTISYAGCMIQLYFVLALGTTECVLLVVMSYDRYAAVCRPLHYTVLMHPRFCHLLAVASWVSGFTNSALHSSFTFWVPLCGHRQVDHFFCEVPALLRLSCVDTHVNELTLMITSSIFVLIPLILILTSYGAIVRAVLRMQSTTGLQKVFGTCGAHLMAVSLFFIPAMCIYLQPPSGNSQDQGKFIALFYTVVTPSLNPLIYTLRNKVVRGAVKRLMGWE", "conditions": "OR2J3, with and without the TAR-Tat system", "protocol": "(§1) Flp-In T-REx-293 cells stably expressing accessory proteins (RTP1S, Gαolf, and Ric8-b) were established using the Flp-In T-REx system. Accessory proteins-expressing cells were maintained in high-glucose Dulbecco’s modified Eagle medium (Sigma-Aldrich) containing 10% fetal bovine serum (Biowest) and 1% antibiotic–antimycotic (Nacalai tesque) at 37°C with 5% CO2.\n(§2) The GloSensor™ Technology (Promega) was used for the luciferase assay of the hOR response. As the negative control, cells that were transfected by the pBApo-CMV neo vector and pHEK293 Ultra Expression Vector I were used as mock cells. hOR/pHEK and hOR/pBApo (50 ng/well) were transfected into the accessory proteins-expressing cell line (40000 cells/well) using Lipofectamine 2000 (Thermo Fisher Scientific) (400 nL/well) along with pGlosensor™-22F cAMP biosensor plasmid (Promega) (50 ng/well) in a 96-well plate. At 28 h posttransfection, the cells were washed with an assay buffer (140 mM NaCl, 10 mM HEPES, 5 mM KCl, 1 mM CaCl2・2H2O, 10 mM D-glucose, pH 7.5) and replaced with the assay buffer (50 μL/well) containing 2% GloSensor cAMP substrate and preincubated for 1 h at 25°C. Then, the assay buffer was added (130 μL/well). After 10 min of equilibration, the luminescence was measured (L0). Odorants diluted in 10% DMSO/assay buffer were treated (20 μL/well). After 9 min, the luminescence was measured (L9min). First, all the L9min values were subtracted by the L0 value (ΔL) and divided by the L0 value (ΔL/L0). The concentration range of the odorants was different for each odorant, but the minimum was 0.01 μM and the maximum was 3 mM. For all hORs, luciferase assays with hOR/pBApo and hOR/pHEK were conducted in the same 96-well plate each time, and luminescence was normalized to a maximum value of 100. Dose–response curve images were graphed using the Graph Pad Prism 9 software (Graph Pad Software)."}, "OR10H3": {"target": "T2, OR10H3 (Homo sapiens, UniProt O60404)", "T2 construct": "Lucy tag (N); expressed in transfected cells; host or cells: Flp-In T-REx-293 cells stably expressing RTP1S, Gαolf and Ric8-b", "T2 sequence (O60404 1-316)": "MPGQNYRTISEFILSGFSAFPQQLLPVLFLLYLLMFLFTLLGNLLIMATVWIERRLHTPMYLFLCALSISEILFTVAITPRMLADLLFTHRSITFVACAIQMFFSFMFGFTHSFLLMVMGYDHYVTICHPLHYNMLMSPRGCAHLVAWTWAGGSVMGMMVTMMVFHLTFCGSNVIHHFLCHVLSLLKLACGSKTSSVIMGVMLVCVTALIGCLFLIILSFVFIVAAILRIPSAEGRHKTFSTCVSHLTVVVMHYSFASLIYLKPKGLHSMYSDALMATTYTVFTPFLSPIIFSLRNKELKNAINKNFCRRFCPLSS", "conditions": "OR10H3, with or without the TAR-Tat system", "protocol": "as §1, §2"}, "OR5M3": {"target": "T3, OR5M3 (Homo sapiens, UniProt Q8NGP4)", "T3 construct": "Lucy tag (N); FLAG (N); Rho tag (N); expressed in transfected cells; host or cells: Flp-In T-REx-293 cells stably expressing RTP1S, Gαolf and Ric8-b", "T3 sequence (Q8NGP4 1-307)": "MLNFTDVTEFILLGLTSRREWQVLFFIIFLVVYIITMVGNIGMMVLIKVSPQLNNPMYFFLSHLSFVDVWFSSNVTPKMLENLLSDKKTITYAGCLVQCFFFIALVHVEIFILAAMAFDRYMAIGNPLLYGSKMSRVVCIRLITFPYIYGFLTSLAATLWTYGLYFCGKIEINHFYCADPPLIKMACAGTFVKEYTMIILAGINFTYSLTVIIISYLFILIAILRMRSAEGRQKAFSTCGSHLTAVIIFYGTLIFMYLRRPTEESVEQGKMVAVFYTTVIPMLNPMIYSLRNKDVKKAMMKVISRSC", "conditions": "OR5M3, with or without the TAR-Tat system", "protocol": "as §1, §2"}, "OR8B4": {"target": "T4, OR8B4 (Homo sapiens, UniProt Q96RC9)", "T4 construct": "Lucy tag (N); FLAG (N); Rho tag (N); expressed in transfected cells; host or cells: Flp-In T-REx-293 cells stably expressing RTP1S, Gαolf and Ric8-b", "T4 sequence (Q96RC9 1-309)": "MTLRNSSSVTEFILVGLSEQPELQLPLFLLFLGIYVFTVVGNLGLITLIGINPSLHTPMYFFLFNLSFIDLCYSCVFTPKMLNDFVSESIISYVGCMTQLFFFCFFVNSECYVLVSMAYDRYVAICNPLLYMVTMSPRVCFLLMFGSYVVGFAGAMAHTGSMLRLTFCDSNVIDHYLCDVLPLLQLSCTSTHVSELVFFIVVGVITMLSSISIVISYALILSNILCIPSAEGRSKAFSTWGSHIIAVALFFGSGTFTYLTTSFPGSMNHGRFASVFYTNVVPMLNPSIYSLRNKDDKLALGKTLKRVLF", "conditions": "OR8B4, with or without the TAR-Tat system", "protocol": "as §1, §2"}, "OR56B1": {"target": "T5, OR56B1 (Homo sapiens, UniProt Q8NGI3)", "T5 construct": "Lucy tag (N); expressed in transfected cells; host or cells: Flp-In T-REx-293 cells stably expressing RTP1S, Gαolf and Ric8-b", "T5 sequence (Q8NGI3 1-324)": "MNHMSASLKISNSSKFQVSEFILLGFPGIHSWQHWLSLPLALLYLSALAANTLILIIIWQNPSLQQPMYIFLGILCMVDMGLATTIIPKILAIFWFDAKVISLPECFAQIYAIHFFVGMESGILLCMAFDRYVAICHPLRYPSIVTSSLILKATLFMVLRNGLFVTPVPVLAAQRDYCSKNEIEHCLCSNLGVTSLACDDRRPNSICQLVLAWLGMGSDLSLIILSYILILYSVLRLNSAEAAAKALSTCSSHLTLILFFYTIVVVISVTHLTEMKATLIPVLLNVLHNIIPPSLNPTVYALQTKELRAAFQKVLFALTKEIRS", "conditions": "OR56B1, with or without the TAR-Tat system", "protocol": "as §1, §2"}},
  "data": [
    {"smiles": "CCCCCC=O", "note": "[n-hexanal]", "values": [
      {"measurement": "concentration-dependent response to n-hexanal", "setting": "OR2J3", "value": "concentration-dependent responses only with the TAR-Tat system"},
      {"measurement": "concentration-dependent response to n-hexanal", "setting": "OR10H3", "value": "no concentration-dependent response"},
      {"measurement": "concentration-dependent response to n-hexanal", "setting": "OR5M3", "value": "no concentration-dependent response"},
      {"measurement": "concentration-dependent response to n-hexanal", "setting": "OR8B4", "value": "no concentration-dependent response"},
      {"measurement": "concentration-dependent response to n-hexanal", "setting": "OR56B1", "value": "no concentration-dependent response"}
    ]}
  ]
}
